Data published in PubChem BioAssay (NCI).
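All cell lines were grown in 96-well plates and treated with compound for 48 hours. TGI: concentration producing complete growth inhibition.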

Key:
Test in all cases: DTP human tumour cell line panel, 48 h
786-0 renal = system: 786-0 renal
DU-145 prostate = system: DU-145 prostate
UACC-62 melanoma = system: UACC-62 melanoma
K-562 leukemia = system: K-562 leukemia
SR leukemia = system: SR leukemia
NCI-H522 lung = system: NCI-H522 lung
MDA-MB-231 breast = system: MDA-MB-231 breast
OVCAR-3 ovarian = system: OVCAR-3 ovarian
NCI-H460 lung = system: NCI-H460 lung
COLO 205 colon = system: COLO 205 colon
OVCAR-8 ovarian = system: OVCAR-8 ovarian
HT29 colon = system: HT29 colon
HCC-2998 colon = system: HCC-2998 colon
HS 578T breast = system: HS 578T breast
NCI-H23 lung = system: NCI-H23 lung
SK-MEL-5 melanoma = system: SK-MEL-5 melanoma
CAKI-1 renal = system: CAKI-1 renal
RPMI-8226 leukemia = system: RPMI-8226 leukemia
LOX IMVI melanoma = system: LOX IMVI melanoma
HOP-62 NSCLC = system: HOP-62 NSCLC
MOLT-4 leukemia = system: MOLT-4 leukemia
SNB-19 CNS = system: SNB-19 CNS
SK-MEL-28 melanoma = system: SK-MEL-28 melanoma
OVCAR-5 ovarian = system: OVCAR-5 ovarian
UO-31 renal = system: UO-31 renal
HL-60(TB) leukemia = system: HL-60(TB) leukemia
SW-620 colon = system: SW-620 colon
IGROV1 ovarian = system: IGROV1 ovarian
TK-10 renal = system: TK-10 renal
A498 renal = system: A498 renal
EKVX NSCLC = system: EKVX NSCLC
SF-295 CNS = system: SF-295 CNS
M14 melanoma = system: M14 melanoma
NCI-H226 lung = system: NCI-H226 lung
NCI/ADR-RES ovarian = system: NCI/ADR-RES ovarian
HCT-15 colon = system: HCT-15 colon
HOP-92 NSCLC = system: HOP-92 NSCLC
MDA-MB-435 = system: MDA-MB-435
ACHN renal = system: ACHN renal
U251 CNS = system: U251 CNS
SNB-75 CNS = system: SNB-75 CNS
SN12C renal = system: SN12C renal
OVCAR-4 ovarian = system: OVCAR-4 ovarian
MCF7 breast = system: MCF7 breast
PC-3 prostate = system: PC-3 prostate
T-47D breast = system: T-47D breast
RXF 393 renal = system: RXF 393 renal
A549 NSCLC = system: A549 NSCLC
SF-539 CNS = system: SF-539 CNS
UACC-257 melanoma = system: UACC-257 melanoma
HCT-116 colon = system: HCT-116 colon
SK-MEL-2 melanoma = system: SK-MEL-2 melanoma
CCRF-CEM leukemia = system: CCRF-CEM leukemia
KM12 colon = system: KM12 colon
BT-549 breast = system: BT-549 breast
SK-OV-3 ovarian = system: SK-OV-3 ovarian
MALME-3M melanoma = system: MALME-3M melanoma
SF-268 CNS = system: SF-268 CNS

CCSc1nc(N2CCOCC2)c2cn[nH]c2n1
TGI (786-0 renal): > 100 µM | TGI (DU-145 prostate): > 100 µM | TGI (UACC-62 melanoma): > 100 µM | TGI (K-562 leukemia): > 100 µM | TGI (SR leukemia): > 100 µM | TGI (NCI-H522 lung): > 100 µM | TGI (MDA-MB-231 breast): > 100 µM | TGI (OVCAR-3 ovarian): > 100 µM | TGI (NCI-H460 lung): > 100 µM | TGI (COLO 205 colon): > 100 µM | TGI (OVCAR-8 ovarian): > 100 µM | TGI (HT29 colon): > 100 µM | TGI (HCC-2998 colon): > 100 µM | TGI (HS 578T breast): > 100 µM | TGI (NCI-H23 lung): > 100 µM | TGI (SK-MEL-5 melanoma): > 100 µM | TGI (CAKI-1 renal): > 100 µM | TGI (RPMI-8226 leukemia): > 100 µM | TGI (LOX IMVI melanoma): > 100 µM | TGI (HOP-62 NSCLC): > 100 µM | TGI (MOLT-4 leukemia): > 100 µM | TGI (SNB-19 CNS): > 100 µM | TGI (SK-MEL-28 melanoma): > 100 µM | TGI (OVCAR-5 ovarian): > 100 µM | TGI (UO-31 renal): > 100 µM | TGI (HL-60(TB) leukemia): > 100 µM | TGI (SW-620 colon): > 100 µM | TGI (IGROV1 ovarian): > 100 µM | TGI (TK-10 renal): > 100 µM | TGI (A498 renal): 15.9 µM | TGI (EKVX NSCLC): > 100 µM | TGI (SF-295 CNS): > 100 µM | TGI (M14 melanoma): > 100 µM | TGI (NCI-H226 lung): > 100 µM | TGI (NCI/ADR-RES ovarian): > 100 µM | TGI (HCT-15 colon): > 100 µM | TGI (HOP-92 NSCLC): > 100 µM | TGI (MDA-MB-435): > 100 µM | TGI (ACHN renal): > 100 µM | TGI (U251 CNS): > 100 µM | TGI (SNB-75 CNS): > 100 µM | TGI (SN12C renal): > 100 µM | TGI (OVCAR-4 ovarian): > 100 µM | TGI (MCF7 breast): > 100 µM | TGI (PC-3 prostate): > 100 µM | TGI (T-47D breast): > 100 µM | TGI (RXF 393 renal): > 100 µM | TGI (A549 NSCLC): > 100 µM | TGI (SF-539 CNS): > 100 µM | TGI (UACC-257 melanoma): > 100 µM | TGI (HCT-116 colon): > 100 µM | TGI (SK-MEL-2 melanoma): > 100 µM | TGI (CCRF-CEM leukemia): > 100 µM | TGI (KM12 colon): > 100 µM | TGI (BT-549 breast): > 100 µM | TGI (SK-OV-3 ovarian): > 100 µM | TGI (MALME-3M melanoma): > 100 µM | TGI (SF-268 CNS): > 100 µM
